One experiment addresses T1, NPR-C (Homo sapiens, UniProt P17342).
T1 construct: expressed in transfected cells; host or cells: Hek293, lentiviral transduction, CMV promoter, puromycin selection
T1 sequence (P17342 27-541): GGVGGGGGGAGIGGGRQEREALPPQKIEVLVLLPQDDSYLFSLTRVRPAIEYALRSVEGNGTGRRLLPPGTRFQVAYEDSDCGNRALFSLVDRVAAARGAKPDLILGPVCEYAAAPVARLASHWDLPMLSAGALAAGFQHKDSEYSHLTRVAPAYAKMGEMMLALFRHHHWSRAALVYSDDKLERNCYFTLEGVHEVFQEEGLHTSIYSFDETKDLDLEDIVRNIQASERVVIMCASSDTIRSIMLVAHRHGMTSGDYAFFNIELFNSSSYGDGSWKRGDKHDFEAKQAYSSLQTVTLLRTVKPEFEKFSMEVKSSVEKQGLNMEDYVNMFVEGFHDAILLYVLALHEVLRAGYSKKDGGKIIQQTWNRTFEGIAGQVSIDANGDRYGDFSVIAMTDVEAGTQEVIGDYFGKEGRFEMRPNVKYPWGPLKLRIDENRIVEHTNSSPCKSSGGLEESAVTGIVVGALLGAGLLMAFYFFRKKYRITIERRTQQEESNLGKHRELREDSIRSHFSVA
Kind of experiment: NPR-C affinity assay. The format is binding. To be noted: residual NPR-C affinity, NPR-C expressing Hek293 cells, competition with fluorescein-labelled CNP 27d.

A further experiment has as its target T2, NPR-B receptor (Mus musculus, UniProt Q6VVW5).
T2 construct: These cells express endogenously the NPR-B receptor on the cell surface; endogenous in cells; host or cells: NIH-3T3 (murine embryo fibroblast)
T2 sequence (Q6VVW5 23-1047 limits assumed): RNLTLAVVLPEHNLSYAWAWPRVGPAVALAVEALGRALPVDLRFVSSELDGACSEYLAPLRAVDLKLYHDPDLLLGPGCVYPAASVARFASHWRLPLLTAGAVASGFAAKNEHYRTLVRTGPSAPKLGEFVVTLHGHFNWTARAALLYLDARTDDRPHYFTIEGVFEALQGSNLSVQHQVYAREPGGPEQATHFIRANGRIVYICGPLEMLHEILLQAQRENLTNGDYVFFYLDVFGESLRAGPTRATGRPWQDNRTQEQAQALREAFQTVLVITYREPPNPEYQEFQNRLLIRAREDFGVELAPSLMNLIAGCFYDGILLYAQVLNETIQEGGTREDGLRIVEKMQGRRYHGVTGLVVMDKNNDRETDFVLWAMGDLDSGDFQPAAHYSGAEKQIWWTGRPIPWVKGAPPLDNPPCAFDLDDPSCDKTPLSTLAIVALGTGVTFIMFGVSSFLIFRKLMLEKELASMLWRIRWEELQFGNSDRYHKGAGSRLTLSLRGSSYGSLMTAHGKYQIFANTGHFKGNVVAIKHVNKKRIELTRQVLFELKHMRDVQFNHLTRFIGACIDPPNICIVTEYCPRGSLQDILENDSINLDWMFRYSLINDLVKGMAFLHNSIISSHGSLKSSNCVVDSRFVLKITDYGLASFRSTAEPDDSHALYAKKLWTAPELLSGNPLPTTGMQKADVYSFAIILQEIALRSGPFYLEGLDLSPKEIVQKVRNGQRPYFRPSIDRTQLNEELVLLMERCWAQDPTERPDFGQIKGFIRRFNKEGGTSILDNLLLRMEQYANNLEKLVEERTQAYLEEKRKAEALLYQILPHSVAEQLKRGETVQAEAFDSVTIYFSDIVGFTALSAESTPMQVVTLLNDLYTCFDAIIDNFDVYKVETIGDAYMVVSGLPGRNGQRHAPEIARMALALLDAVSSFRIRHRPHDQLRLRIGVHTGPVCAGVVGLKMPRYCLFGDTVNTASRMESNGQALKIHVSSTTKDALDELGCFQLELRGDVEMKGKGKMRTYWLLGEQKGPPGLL
Description: Functional cGMP stimulation in NIH-3T3 cells with CNP variants. Format: cell-based, murine. To be noted: residual NPR-B activity vs non-PEGylated CNP-38, cGMP. On the procedure: As used herein “EC50” with regard to controlled-release CNP agonist and CNP agonist refers to the concentration of controlled-release CNP agonist and CNP agonist with which a half-maximum cGMP production of NPR-B is elicited. NPR-B activity in the form of its EC50 of the controlled-release CNP agonist, of the released CNP agonist and of CNP-22 is measured by cultivating NIH-3T3 (Murine Embryo Fibroblast cell line) cells which express NPR-B on their cell surface, incubating the cells with the controlled-release CNP agonist, the corresponding released CNP agonist or CNP-22, respectively, and determining the intracellular production of the second messenger cGMP with a standard cGMP assay. In particular the assay is performed as follows: • (1) murine NIH-3T3 cells expressing endogenous NPR-B are cultivated in DMEM F-12 medium with 5% FBS and 5 mM glutamine at 37° C. and 5% CO2; • (2) for each assay 50,000 cells are resuspended in Dulbecco's PBS with IBMX and incubated with either the controlled-release CNP agonist, the corresponding released CNP agonist or CNP-22; each in different concentrations; • (3) after incubating for 30 min at 37° C. and 5% CO2, the cells are lysed and cGMP levels are determined; and • (4) generating an EC50 value from the determined cGMP levels.
Functional activity of CNP variants were determined in a cell-based assay with NIH-3T3 cells (Murine Embryo Fibroblast cell line). These cells express endogenously the NPR-B receptor on the cell surface. Stimulation of the NPR-B receptor with CNP leads to intracellular production of the second messenger cGMP which is detected with a commercially available cGMP assay. NIH-3T3 cells were routinely cultured in DMEM F-12 medium with 5% FBS and 5 mM glutamine at 37° C. and 5% CO2. For each assay, 50,000 cells were resuspended in stimulation buffer (Dulbecco's PBS with IBMX) and incubated with the CNP variants in different concentrations. CNP (dilutions were made in PBS with 0.2% BSA). After incubation of 30 min at 37° C. and 5% CO2, the cells were lyzed and cGMP levels were determined with a commercially available cGMP TR-FRET assay (Cisbio, cGMP kit, Cat. No. 62GM2PEB). PEGylated CNP variants were always characterized in comparison with the non-PEGylated version in the same experiment batch. If possible, evaluation of the residual activity was done via the relative EC50-parameter of the resulting dose-response curve (restricted model with common slope).
11i was incubated under physiological conditions (1 mg CNP-38 eq/mL), as described in Example 20. After 7 d, released CNP-38 was isolated by RP-HPLC and analyzed for bioactivity as described in Example 21.

A value given as a limit tells only on which side of the number the result lay.

Consider “Permanent Lys26 CNP-38 PEG4×10 kDa Conjugate [Compound 12g]”, for which the “IC50 of PEGylated CNP-38/IC50 CNP-38” value at NPR-C came out at 143. In addition, the “EC50 compound/EC50 CNP-38” value on NPR-B receptor is recorded as >>100.
As for “Reversible Lys26 CNP-38 PEG2×20 kDa Conjugate [Compound 10f]”, at NPR-C, the “IC50 of PEGylated CNP-38/IC50 CNP-38” value was 12. For the same substance, the “EC50 compound/EC50 CNP-38” value on NPR-B receptor is on record as >>100.
